Results from ChEMBL document CHEMBL1128984, “Synthesis and biological activity of novel tricyclic -lactams” (1996).

Assays:
Type in all cases: functional
Staphylococcus aureus [1] = assay: In vitro antibacterial activity against Staphylococcus aureus 1131.
Escherichia coli = assay: In vitro antibacterial activity against Escherichia coli 1850.
Staphylococcus aureus [2] = assay: In vitro antibacterial activity against Staphylococcus aureus 853.
Enterococcus faecalis = assay: In vitro antibacterial activity against […] faecalis 850E.
Staphylococcus aureus [3] = assay: In vitro antibacterial activity against Staphylococcus aureus 663.
Pseudomonas aeruginosa = assay: In vitro antibacterial activity against Pseudomonas aeruginosa 1911.
Clostridium perfringens = assay: In vitro antibacterial activity against Clostridium perfringens 615.

C[C@@H](O)[C@H]1C(=O)N2C(C(=O)[O-])=C3CCC[C@H]3[C@H]12.[Na+]
MIC (Staphylococcus aureus [1]): 8 µg/mL | MIC (Escherichia coli): 2 µg/mL | MIC (Staphylococcus aureus [2]): 0.5 µg/mL | MIC (Enterococcus faecalis): 16 µg/mL | MIC (Staphylococcus aureus [3]): 1 µg/mL | MIC (Pseudomonas aeruginosa): > 32 µg/mL | MIC (Clostridium perfringens): 1 µg/mL

CO[C@H]1CC[C@H]2C1=C(C(=O)[O-])N1C(=O)[C@H]([C@@H](C)O)[C@@H]21.[Na+]
MIC (Staphylococcus aureus [1]): 8 µg/mL | MIC (Escherichia coli): 0.5 µg/mL | MIC (Staphylococcus aureus [2]): 0.5 µg/mL | MIC (Enterococcus faecalis): 2 µg/mL | MIC (Staphylococcus aureus [3]): 0.25 µg/mL | MIC (Pseudomonas aeruginosa): 32 µg/mL | MIC (Clostridium perfringens): 0.12 µg/mL

C[C@@H](O)[C@H]1C(=O)N2C(C(=O)O)=C(SCCNC=N)C[C@H]12.O [IMIPENEM]
MIC (Staphylococcus aureus [1]): 4 µg/mL | MIC (Escherichia coli): 0.5 µg/mL | MIC (Staphylococcus aureus [2]): 0.12 µg/mL | MIC (Enterococcus faecalis): 2 µg/mL | MIC (Staphylococcus aureus [3]): 0.06 µg/mL | MIC (Pseudomonas aeruginosa): 4 µg/mL | MIC (Clostridium perfringens): 0.03 µg/mL
